Results from ChEMBL document CHEMBL1129553, “Synthesis and pharmacology of highly selective carboxy and phosphono isoxazole amino acid AMPA receptor antagonists” (J Med Chem, 1996).

Tests used:
[1] = target: Glutamate receptor ionotropic, kainate; assay: In vitro inhibition of [3H]KAIN binding to Ionotropic glutamate receptor kainate.; assay type: protein-complex assay
[2] = target: T1, Glutamate receptor ionotropic, AMPA (Rattus norvegicus, UniProt P19490+P19491+P19492+P19493); assay: Inhibition of AMPA induced electrophysiological responses in rat cortical slices.; assay type: functional
[3] = target: T1, Glutamate receptor ionotropic, AMPA; assay: In vitro inhibition of [3H]CNQX binding to Ionotropic glutamate receptor AMPA.; assay type: protein-complex assay
[4] = target: T1, Glutamate receptor ionotropic, AMPA; assay: In vitro inhibition of [3H]AMPA binding to Ionotropic glutamate receptor AMPA.; assay type: protein-complex assay
[5] = target: Glutamate NMDA receptor; assay: In vitro inhibition of [3H]CPP binding to NMDA receptor.; assay type: protein-complex assay
[6] = organism: Rattus norvegicus; assay: Inhibitory activity against antagonism of AMPA induced responses in rat cortical slices; assay type: functional

SMILES | IC50 [1] [µM] | IC50 [2] [µM] | IC50 [3] [µM] | IC50 [4] [µM] | IC50 [5] [µM] | IC50 [6] [µM] | Ki [2] [nM]
NC(Cc1c(OCP(=O)(O)O)noc1-c1ccccc1)C(=O)O (stereo unspecified) | > 100 | > 1000 | > 100 | > 100 | > 100 | – | –
Cc1onc(OCC(=O)O)c1CC(N)C(=O)O (stereo unspecified) | – | – | 8 | – | – | 320 | –
N#Cc1cc2c(cc1[N+](=O)[O-])=NC(=O)C(=O)N=2 | 1.5 | – | – | – | 25 | – | –
O=C(O)[C@H]1CN(CCCP(=O)(O)O)CCN1 | – | – | – | > 100 | 0.05 | – | 1600
O=C(O)C1Cc2c(OCP(=O)(O)O)noc2CN1 (stereo unspecified) | > 100 | – | > 100 | > 100 | 22 | – | –
NC(Cc1c(OCP(=O)(O)O)noc1-c1cccs1)C(=O)O (stereo unspecified) | > 100 | 360 | > 100 | > 100 | > 100 | – | –
CC(C)(C)c1onc(OCC(=O)O)c1CC(N)C(=O)O (stereo unspecified) | > 100 | 150 | 12 | 33 | > 100 | – | –
CC(C)(C)Cc1onc(OCP(=O)(O)O)c1CC(N)C(=O)O (stereo unspecified) | > 100 | > 1000 | 35 | > 100 | > 100 | – | –
Cc1onc(OCP(=O)(O)O)c1CC(N)C(=O)O (stereo unspecified) | > 100 | 60 | 6.9 | 31 | > 100 | – | –
CCCCc1onc(OCP(=O)(O)O)c1CC(N)C(=O)O (stereo unspecified) | > 100 | 140 | 18 | > 100 | > 100 | – | –
NC(Cc1c(OCC(=O)O)noc1-c1cccs1)C(=O)O (stereo unspecified) | > 100 | > 1000 | > 100 | > 100 | > 100 | – | –
CC(C)(C)c1onc(OCP(=O)(O)O)c1CC(N)C(=O)O (stereo unspecified) | > 100 | – | – | – | > 100 | – | –
CCCCc1onc(OCC(=O)O)c1CC(N)C(=O)O (stereo unspecified) | > 100 | > 1000 | 87 | > 100 | > 100 | – | –
NC(Cc1c(OCC(=O)O)noc1-c1ccccc1)C(=O)O (stereo unspecified) | > 100 | > 1000 | > 100 | > 100 | > 100 | – | –
NC(Cc1cc(OCC(=O)O)no1)C(=O)O (stereo unspecified) | > 100 | > 1000 | > 100 | > 100 | > 100 | – | –
CCCC(CCC)c1onc(OCC(=O)O)c1CC(N)C(=O)O (stereo unspecified) | > 100 | > 1000 | 63 | > 100 | > 100 | – | –
NC(Cc1cc(OCP(=O)(O)O)no1)C(=O)O (stereo unspecified) | > 100 | > 1000 | > 100 | > 100 | > 100 | – | –
CCCC(CCC)c1onc(OCP(=O)(O)O)c1CC(N)C(=O)O (stereo unspecified) | > 100 | 350 | – | > 100 | – | – | –
CC(C)(C)Cc1onc(OCC(=O)O)c1CC(N)C(=O)O (stereo unspecified) | > 100 | > 1000 | > 100 | > 100 | > 100 | – | –
